Test results reported in patent US20230399341A1, “7-PHENYL SUBSTITUTED 2-AMINOQUINAZOLINE INHIBITORS OF HPK1” (MERCK SHARP & DOHME LLC, priority 2020, published 2023).

Target: T1, Human HPK1, catalytic domain (Homo sapiens, UniProt Q92918)
T1 sequence (Q92918 1-346): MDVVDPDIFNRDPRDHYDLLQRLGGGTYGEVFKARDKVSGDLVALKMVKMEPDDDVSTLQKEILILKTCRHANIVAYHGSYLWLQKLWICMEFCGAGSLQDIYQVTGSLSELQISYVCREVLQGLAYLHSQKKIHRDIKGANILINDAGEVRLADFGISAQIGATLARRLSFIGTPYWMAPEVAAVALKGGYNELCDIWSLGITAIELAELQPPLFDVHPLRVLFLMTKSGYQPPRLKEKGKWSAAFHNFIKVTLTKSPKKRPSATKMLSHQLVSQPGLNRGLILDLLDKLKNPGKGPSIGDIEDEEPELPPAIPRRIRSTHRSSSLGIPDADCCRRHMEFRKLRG
Assay: HPK1-SLP76 TR-FRET Assay
Assay type: biochemical
Settings: 75 pM HPK1, ATP 10 uM, SLP76 10 nM, 30 min pre-incubation, 60 min reaction

Structure (SMILES)	IC50 [nM]
COc1ccccc1Nc1ncc2c(N)c(F)c(-c3cnc4c(c3C)NCCO4)cc2n1 [Compound 2-71, 6-fluoro-N~2~-(2-methoxyphenyl)-7-(8-methyl-2,3-dihydro-1H-pyrido[2,3-b][1,4]oxazin-7-yl)quinazoline-2,5-diamine]	0.254
COc1cc2c(cc1Nc1ncc3c(N)c(F)c(-c4cnc5c(c4C)NCCO5)cc3n1)CN(C(C)C)CC2 [Compound 2-72, 6-fluoro-N~2~-[6-methoxy-2-(propan-2-yl)-1,2,3,4-tetrahydroisoquinolin-7-yl]-7-(8-methyl-2,3-dihydro-1H-pyrido[2,3-b][1,4]oxazin-7-yl)quinazoline-2,5-diamine]	0.117
Cc1c(-c2cc3nc(Nc4ccc5c(c4)CN(C)CC54CC4)ncc3c(N)c2F)cnc2c1NCCO2 [Compound 2-73, 6-fluoro-7-(8-methyl-2,3-dihydro-1H-pyrido[2,3-b][1,4]oxazin-7-yl)-N~2~- (2′-methyl-2′,3′-dihydro-1′H-spiro[cyclopropane-1,4′-isoquinolin]-7′-yl)quinazoline-2,5-diamine]	0.0508
Cc1c(-c2cc3nc(Nc4ccc5c(c4)CN(C(C)C)CC5)ncc3c(N)c2F)cnc2c1NCCO2 [Compound 2-76, 6-fluoro-7-(8-methyl-2,3-dihydro-11H-pyrido[2,3-b][1,4]oxazin-7-yl)-N˜2˜-[2-(propan-2-yl)-1,2,3,4-tetrahydroisoquinolin-7-yl]quinazoline-2,5-diamine]	0.0321
Cc1c(-c2cc3nc(Nc4ccc5c(c4)CN(C)C5=O)ncc3c(N)c2F)cnc2c1NCCO2 [Compound 2-78, 5-{[5-amino-6-fluoro-7-(8-methyl-2,3-dihydro-1H-pyrido[2,3-b][1,4]oxazin-7-yl)quinazolin-2-yl]amino}-2-methyl-2,3-dihydro-1H-isoindol-1-one]	0.0198
CNC(=O)C1(c2ccc(Nc3ncc4c(N)c(F)c(-c5cnc6c(c5C)NCCO6)cc4n3)cc2)CCCCC1 [Compound 2-80, 1-(4-((5-amino-6-fluoro-7-(8-methyl-2,3-dihydro-1H-pyrido[2,3-b][1,4]oxazin-7-yl)quinazolin-2-yl)amino)phenyl)-N-methylcyclohexane-1-carboxamide]	0.0728
CNC(=O)C1(c2ccc(Nc3ncc4c(N)c(F)c(-c5cnc6c(c5C)NCCO6)cc4n3)cc2)CCC1 [Compound 2-82, 1-(4-((5-amino-6-fluoro-7-(8-methyl-2,3-dihydro-1H-pyrido[2,3-b][1,4]oxazin-7-yl)quinazolin-2-yl)amino)phenyl)-N-methylcyclobutane-1-carboxamide]	0.0309

Continued, values first:

IC50 [nM]	Structure (SMILES)
0.266	CNC(=O)c1ccc(Nc2ncc3c(N)c(F)c(-c4cnc5c(c4C)NCCO5)cc3n2)c(OC)c1 [Compound 2-74, 4-{[5-amino-6-fluoro-7-(8-methyl-2,3-dihydro-1H-pyrido[2,3-b][1,4]oxazin-7-yl)quinazolin-2-yl]amino}-3-methoxy-N-methylbenzamide]
0.325	COc1cc2c(cc1Nc1ncc3c(N)c(F)c(-c4cnc5c(c4C)NCCO5)cc3n1)CN(C)CC2(C)C [Compound 2-75, 6-fluoro-N~2~-(6-methoxy-2,4,4-trimethyl-1,2,3,4-tetrahydroisoquinolin-7-yl)-7-(8-methyl-2,3-dihydro-1H-pyrido[2,3-b][1,4]oxazin-7-yl)quinazoline-2,5-diamine]
0.782	COc1ccc(Nc2ncc3c(N)c(F)c(-c4cnc5c(c4C)NCCO5)cc3n2)c(C)n1 [Compound 2-77, 6-fluoro-N~2~-(6-methoxy-2-methylpyridin-3-yl)-7-(8-methyl-2,3-dihydro-1H-pyrido[2,3-b][1,4]oxazin-7-yl)quinazoline-2,5-diamine]
0.0441	CNC(=O)C1(c2ccc(Nc3ncc4c(N)c(F)c(-c5cnc6c(c5C)NCCO6)cc4n3)cc2)CC1 [Compound 2-81, 1-(4-((5-amino-6-fluoro-7-(8-methyl-2,3-dihydro-1H-pyrido[2,3-b][1,4]oxazin-7-yl)quinazolin-2-yl)amino)phenyl)-N-methylcyclopropane-1-carboxamide]
